From patent US6960592B2, “1,6-dihydro-7H-pyrazolo[4,3-d]pyrimidin-7-one compound for the treatment of impotence” (priority 2001, dated 2005)

Legend:
[1] = Toxicity test, LD50 by Bliss method, oral gavage; conditions: mouse, in vivo, mice, orally by gavage, confidence limit of 95% 772.5-1052.1 mg/kg, read-out: half-lethal dosage (LD50)
Experimental: The confidence limit of 95% is 772.5-1052.1 mg/kg.

mice with testis removed = experiment: Effect on the sexual function in mice with testis removed; assay type: in vivo
Description: Test 2. Effect of the compound of formula (I′) on the sexual function in mice with testis removed

rats with testis removed = experiment: Penis erection test in rats with testis removed; assay type: in vivo
Description: Test 1. Penis erection test of the compound formula (I′) in rats with testis removed

male mice = conditions: orally, single dose, from Chinese Journal of Clinical Pharmacology and Therapeutics 1999, 4(3), 237-240; cited from earlier work

SMILES: CCCc1nn(C)c2c(=O)[nH]c(-c3cc(S(=O)(=O)N4C[C@@H](C)N[C@@H](C)C4)ccc3OCC)nc12 [compound of formula (I′), 5-[[2-ethoxy-5-(cis-2,6-dimethylpiperazin-4-ylsulphonyl)phenyl]]-1-methyl-3-n-propyl-7,6-dihydro-1H-pyrazolo[4,3-d]pyrimidin-7-one]
- LD50 [1]: 902 mg/kg
- latent period which male mice catch female mice (mice with testis removed; dosage 12 mg/kg, P<0.01): significantly shortened
- times of back-climbing on female mice by male mice (times of sexual intercourse) (mice with testis removed; dosage 12 mg/kg, P<0.01): significantly increased
- latent period which male mice catch female mice (mice with testis removed; dosage 24 mg/kg, P<0.05): significantly shortened
- times of back-climbing on female mice by male mice (times of sexual intercourse) (mice with testis removed; dosage 24 mg/kg, P<0.05): significantly increased
- latent period of penis erection by electric irritation (10V) (rats with testis removed; dosage 12 mg/kg, P<0.01): significantly shortened
- latent period of penis erection by electric irritation (10V) (rats with testis removed; dosage 24 mg/kg, P<0.05): significantly shortened

SMILES: CCCc1nn(C)c2c(=O)[nH]c(-c3cc(S(=O)(=O)N4CCN(C)CC4)ccc3OCC)nc12 [sildenafil, 1-[4-ethoxy-3-(6,7-dihydro-1-methyl-7-oxo-3-propyl-1H-pyrazolo[4,3-d]pyrimidin-5-yl)phenylsulphonyl]-4-methylpiperazine, reference compound]
- latent period of penis erection by electric irritation (10V) (rats with testis removed; sildenafil comparator, dose not given, P<0.01): significantly shortened
- LD50 (male mice): 625 mg/kg
